Laboratory results published in ChEMBL document CHEMBL5724914, “Linking interpersonal differences in gut microbiota composition and drug biotransformation activity” (2024).

How the values were obtained:
[1] = human gut metagenome, 24 h, 2 µM
[2] = (§1) The drug is tested on Z-026 corresponding to metagenome with ENA study accession number: PRJEB37062 and ENA sample accession number: ERS12561825 for biotransformation under anaerobic condition. The drug concentrations were measured over 9 timepoints collected between 0 and 24 hours of incubation by liquid-chromatography-coupled mass spectrometry (LC–MS); conditions: 2 µM
[3] = (§2) The drug is tested on WLS-082 corresponding to human gut metagenome with ENA study accession number: PRJEB37062 and ENA sample accession number: ERS12561751 for biotransformation under anaerobic condition. The drug concentrations were measured over 9 timepoints collected between 0 and 24 hours of incubation by liquid-chromatography-coupled mass spectrometry (LC–MS); conditions: 2 µM
[4] = as §1, with “Z-021” for “Z-026”, “ERS12561820” for “ERS12561825”; conditions: 2 µM
[5] = human gut metagenome, 24 h, 2 µM; remark: listed apart in the source
[6] = human gut metagenome, 24 h, 2 µM; remark: listed apart in the source
[7] = human gut metagenome, 24 h, 2 µM; remark: listed apart in the source
[8] = as §2, with “WLS-370” for “WLS-082”, “ERS12561793” for “ERS12561751”; conditions: 2 µM
[9] = as §2, with “Z-003” for “WLS-082”, “pig” for “human”, “ERS12561803” for “ERS12561751”; conditions: 2 µM
Note: call rule not given here.

SMILES: CCCC(=O)Nc1ccc(OCC(O)CNC(C)C)c(C(C)=O)c1 (stereo unspecified) [ACEBUTOLOL]
- Bacterial Biotransformation [1]: Compound NOT metabolized
- Bacterial Biotransformation [2]: Compound NOT metabolized
- Bacterial Biotransformation [3]: Compound NOT metabolized
- Bacterial Biotransformation [4]: Compound metabolized
- Bacterial Biotransformation [5]: Compound NOT metabolized
- Bacterial Biotransformation [6]: Compound metabolized
- Bacterial Biotransformation [7]: Compound metabolized
- Bacterial Biotransformation [8]: Compound NOT metabolized
- Bacterial Biotransformation [9]: Compound metabolized

SMILES: Clc1ccc(Cn2c(CN3CCCC3)nc3ccccc32)cc1 [CLEMIZOLE]
- Bacterial Biotransformation [1]: Compound NOT metabolized
- Bacterial Biotransformation [2]: Compound NOT metabolized
- Bacterial Biotransformation [3]: Compound metabolized
- Bacterial Biotransformation [4]: Compound metabolized
- Bacterial Biotransformation [5]: Compound NOT metabolized
- Bacterial Biotransformation [6]: Compound NOT metabolized
- Bacterial Biotransformation [7]: Compound metabolized
- Bacterial Biotransformation [8]: Compound metabolized
- Bacterial Biotransformation [9]: Compound metabolized

SMILES: CCCCC1=NC2(CCCC2)C(=O)N1Cc1ccc(-c2ccccc2-c2nnn[nH]2)cc1 [IRBESARTAN]
- Bacterial Biotransformation [1]: Compound metabolized
- Bacterial Biotransformation [2]: Compound NOT metabolized
- Bacterial Biotransformation [3]: Compound metabolized
- Bacterial Biotransformation [4]: Compound NOT metabolized
- Bacterial Biotransformation [5]: Compound metabolized
- Bacterial Biotransformation [6]: Compound metabolized
- Bacterial Biotransformation [7]: Compound metabolized
- Bacterial Biotransformation [8]: Compound metabolized
- Bacterial Biotransformation [9]: Compound metabolized

SMILES: CCN(CC)CCNC(C(=O)OCCC(C)C)c1ccccc1.Cl.Cl (stereo unspecified)
- Bacterial Biotransformation [1]: Compound metabolized
- Bacterial Biotransformation [2]: Compound NOT metabolized
- Bacterial Biotransformation [3]: Compound metabolized
- Bacterial Biotransformation [4]: Compound metabolized
- Bacterial Biotransformation [5]: Compound metabolized
- Bacterial Biotransformation [6]: Compound NOT metabolized
- Bacterial Biotransformation [7]: Compound metabolized
- Bacterial Biotransformation [8]: Compound metabolized
- Bacterial Biotransformation [9]: Compound metabolized

SMILES: CC(C)OC(=O)C(C)(C)Oc1ccc(C(=O)c2ccc(Cl)cc2)cc1 [FENOFIBRATE]
- Bacterial Biotransformation [1]: Compound metabolized
- Bacterial Biotransformation [2]: Compound metabolized
- Bacterial Biotransformation [3]: Compound NOT metabolized
- Bacterial Biotransformation [4]: Compound NOT metabolized
- Bacterial Biotransformation [5]: Compound NOT metabolized
- Bacterial Biotransformation [6]: Compound metabolized
- Bacterial Biotransformation [7]: Compound metabolized
- Bacterial Biotransformation [8]: Compound metabolized
- Bacterial Biotransformation [9]: Compound metabolized

SMILES: COc1ccccc1OCC(O)CN1CCN(CC(=O)Nc2c(C)cccc2C)CC1 (stereo unspecified) [RANOLAZINE]
- Bacterial Biotransformation [1]: Compound NOT metabolized
- Bacterial Biotransformation [2]: Compound NOT metabolized
- Bacterial Biotransformation [3]: Compound NOT metabolized
- Bacterial Biotransformation [4]: Compound metabolized
- Bacterial Biotransformation [5]: Compound NOT metabolized
- Bacterial Biotransformation [6]: Compound NOT metabolized
- Bacterial Biotransformation [7]: Compound NOT metabolized
- Bacterial Biotransformation [8]: Compound NOT metabolized
- Bacterial Biotransformation [9]: Compound metabolized

SMILES: CC(C)(C)NC[C@H](O)COc1ccccc1C1CCCC1.CC(C)(C)NC[C@H](O)COc1ccccc1C1CCCC1.O=S(=O)(O)O [PENBUTOLOL SULFATE]
- Bacterial Biotransformation [1]: Compound metabolized
- Bacterial Biotransformation [2]: Compound NOT metabolized
- Bacterial Biotransformation [3]: Compound metabolized
- Bacterial Biotransformation [4]: Compound metabolized
- Bacterial Biotransformation [5]: Compound metabolized
- Bacterial Biotransformation [6]: Compound metabolized
- Bacterial Biotransformation [7]: Compound metabolized
- Bacterial Biotransformation [8]: Compound metabolized
- Bacterial Biotransformation [9]: Compound metabolized

SMILES: COc1ccc2[nH]c([S+]([O-])Cc3ncc(C)c(OC)c3C)nc2c1 (stereo unspecified) [OMEPRAZOLE]
- Bacterial Biotransformation [1]: Compound metabolized
- Bacterial Biotransformation [2]: Compound metabolized
- Bacterial Biotransformation [3]: Compound metabolized
- Bacterial Biotransformation [4]: Compound NOT metabolized
- Bacterial Biotransformation [5]: Compound metabolized
- Bacterial Biotransformation [6]: Compound metabolized
- Bacterial Biotransformation [7]: Compound metabolized
- Bacterial Biotransformation [8]: Compound metabolized
- Bacterial Biotransformation [9]: Compound NOT metabolized

SMILES: CN1CCN(C(=O)O[C@H]2c3nccnc3C(=O)N2c2ccc(Cl)cn2)CC1 [ESZOPICLONE]
- Bacterial Biotransformation [1]: Compound NOT metabolized
- Bacterial Biotransformation [2]: Compound NOT metabolized
- Bacterial Biotransformation [3]: Compound NOT metabolized
- Bacterial Biotransformation [4]: Compound NOT metabolized
- Bacterial Biotransformation [5]: Compound NOT metabolized
- Bacterial Biotransformation [6]: Compound NOT metabolized
- Bacterial Biotransformation [7]: Compound NOT metabolized
- Bacterial Biotransformation [8]: Compound NOT metabolized
- Bacterial Biotransformation [9]: Compound NOT metabolized

SMILES: OC(CCN1CCCCC1)(c1ccccc1)C1CCCCC1 (stereo unspecified) [TRIHEXYPHENIDYL]
- Bacterial Biotransformation [1]: Compound metabolized
- Bacterial Biotransformation [2]: Compound NOT metabolized
- Bacterial Biotransformation [3]: Compound NOT metabolized
- Bacterial Biotransformation [4]: Compound metabolized
- Bacterial Biotransformation [5]: Compound NOT metabolized
- Bacterial Biotransformation [6]: Compound NOT metabolized
- Bacterial Biotransformation [7]: Compound NOT metabolized
- Bacterial Biotransformation [8]: Compound metabolized
- Bacterial Biotransformation [9]: Compound metabolized

SMILES: Cc1ccc(/C(=C\CN2CCCC2)c2ccccn2)cc1 [TRIPROLIDINE]
- Bacterial Biotransformation [1]: Compound NOT metabolized
- Bacterial Biotransformation [2]: Compound NOT metabolized
- Bacterial Biotransformation [3]: Compound NOT metabolized
- Bacterial Biotransformation [4]: Compound NOT metabolized
- Bacterial Biotransformation [5]: Compound NOT metabolized
- Bacterial Biotransformation [6]: Compound NOT metabolized
- Bacterial Biotransformation [7]: Compound NOT metabolized
- Bacterial Biotransformation [8]: Compound NOT metabolized
- Bacterial Biotransformation [9]: Compound metabolized

SMILES: CN1C(=O)CCS(=O)(=O)C1c1ccc(Cl)cc1 (stereo unspecified) [CHLORMEZANONE]
- Bacterial Biotransformation [1]: Compound NOT metabolized
- Bacterial Biotransformation [2]: Compound NOT metabolized
- Bacterial Biotransformation [3]: Compound NOT metabolized
- Bacterial Biotransformation [4]: Compound NOT metabolized
- Bacterial Biotransformation [5]: Compound NOT metabolized
- Bacterial Biotransformation [6]: Compound NOT metabolized
- Bacterial Biotransformation [7]: Compound metabolized
- Bacterial Biotransformation [8]: Compound NOT metabolized
- Bacterial Biotransformation [9]: Compound NOT metabolized

SMILES: Cc1nc2n(c(=O)c1CCN1CCC(c3noc4cc(F)ccc34)CC1)CCCC2 [RISPERIDONE]
- Bacterial Biotransformation [1]: Compound metabolized
- Bacterial Biotransformation [2]: Compound NOT metabolized
- Bacterial Biotransformation [3]: Compound metabolized
- Bacterial Biotransformation [4]: Compound metabolized
- Bacterial Biotransformation [5]: Compound metabolized
- Bacterial Biotransformation [6]: Compound metabolized
- Bacterial Biotransformation [7]: Compound metabolized
- Bacterial Biotransformation [8]: Compound metabolized
- Bacterial Biotransformation [9]: Compound metabolized

SMILES: CCc1nc(N)nc(N)c1-c1ccc(Cl)cc1 [PYRIMETHAMINE]
- Bacterial Biotransformation [1]: Compound NOT metabolized
- Bacterial Biotransformation [2]: Compound NOT metabolized
- Bacterial Biotransformation [3]: Compound NOT metabolized
- Bacterial Biotransformation [4]: Compound NOT metabolized
- Bacterial Biotransformation [5]: Compound NOT metabolized
- Bacterial Biotransformation [6]: Compound NOT metabolized
- Bacterial Biotransformation [7]: Compound NOT metabolized
- Bacterial Biotransformation [8]: Compound NOT metabolized
- Bacterial Biotransformation [9]: Compound NOT metabolized

SMILES: CC(C)NCC(O)COc1ccc(COCCOC(C)C)cc1.CC(C)NCC(O)COc1ccc(COCCOC(C)C)cc1.O=C(O)/C=C/C(=O)O (stereo unspecified) [BISOPROLOL FUMARATE]
- Bacterial Biotransformation [1]: Compound NOT metabolized
- Bacterial Biotransformation [2]: Compound NOT metabolized
- Bacterial Biotransformation [3]: Compound NOT metabolized
- Bacterial Biotransformation [4]: Compound metabolized
- Bacterial Biotransformation [5]: Compound NOT metabolized
- Bacterial Biotransformation [6]: Compound NOT metabolized
- Bacterial Biotransformation [7]: Compound metabolized
- Bacterial Biotransformation [8]: Compound NOT metabolized
- Bacterial Biotransformation [9]: Compound metabolized

SMILES: CN1CCN(C2=Nc3cc(Cl)ccc3Nc3ccccc32)CC1 [CLOZAPINE]
- Bacterial Biotransformation [1]: Compound metabolized
- Bacterial Biotransformation [2]: Compound NOT metabolized
- Bacterial Biotransformation [3]: Compound NOT metabolized
- Bacterial Biotransformation [4]: Compound NOT metabolized
- Bacterial Biotransformation [5]: Compound metabolized
- Bacterial Biotransformation [6]: Compound NOT metabolized
- Bacterial Biotransformation [7]: Compound NOT metabolized
- Bacterial Biotransformation [8]: Compound metabolized
- Bacterial Biotransformation [9]: Compound NOT metabolized

SMILES: CNC(=C[N+](=O)[O-])NCCSCc1csc(CN(C)C)n1 [NIZATIDINE]
- Bacterial Biotransformation [1]: Compound NOT metabolized
- Bacterial Biotransformation [2]: Compound NOT metabolized
- Bacterial Biotransformation [3]: Compound NOT metabolized
- Bacterial Biotransformation [4]: Compound NOT metabolized
- Bacterial Biotransformation [5]: Compound metabolized
- Bacterial Biotransformation [6]: Compound NOT metabolized
- Bacterial Biotransformation [7]: Compound NOT metabolized
- Bacterial Biotransformation [8]: Compound NOT metabolized
- Bacterial Biotransformation [9]: Compound NOT metabolized

SMILES: CN1C(C(=O)Nc2ccccn2)=C(O)c2sccc2S1(=O)=O [TENOXICAM]
- Bacterial Biotransformation [1]: Compound NOT metabolized
- Bacterial Biotransformation [2]: Compound NOT metabolized
- Bacterial Biotransformation [3]: Compound NOT metabolized
- Bacterial Biotransformation [4]: Compound metabolized
- Bacterial Biotransformation [5]: Compound NOT metabolized
- Bacterial Biotransformation [6]: Compound NOT metabolized
- Bacterial Biotransformation [7]: Compound NOT metabolized
- Bacterial Biotransformation [8]: Compound NOT metabolized
- Bacterial Biotransformation [9]: Compound NOT metabolized

SMILES: CCOC(=O)[C@H](CCc1ccccc1)N[C@@H](C)C(=O)N1[C@H](C(=O)O)C[C@@H]2CCC[C@@H]21
- Bacterial Biotransformation [1]: Compound metabolized
- Bacterial Biotransformation [2]: Compound NOT metabolized
- Bacterial Biotransformation [3]: Compound metabolized
- Bacterial Biotransformation [4]: Compound metabolized
- Bacterial Biotransformation [5]: Compound metabolized
- Bacterial Biotransformation [6]: Compound metabolized
- Bacterial Biotransformation [7]: Compound metabolized
- Bacterial Biotransformation [8]: Compound metabolized
- Bacterial Biotransformation [9]: Compound metabolized
